Bounds are passed on as bounds.

This passage reports IC50 results from patent publication US20260356824A1, “COMPOUNDS FOR TREATING FIBROTIC DISEASES” (Meta-Immue Inc., priority 2023, published 2026).

For experiment [1], the target named is T1, hLPAR1 (Homo sapiens, UniProt Q92633).
T1 construct: expressed in transfected cells
In words: Ca2+ Flux Assay (B103 cells stably expressing hLPAR1). The class given is cell-based. The following applies: LPA-induced calcium release, Fura-2 AM, compound 20 min at RT. The procedure: B103 cells stably expressing hLPAR1 were seeded at a density of 1.0×10^5 cells per well in clear flat-bottom black 96-well plates and incubated overnight in complete media. The following day, the cells were pre-incubated in serum-free media for 2 hours prior to ensure cellular equilibration. For the loading a calcium-sensitive fluorescent dye, the cells were treated with a concentration of 5 μM Fura-2 AM dye (Sigma, F1225) in Hank's buffered salt solution (HBSS) supplemented with 20 mM HEPES, […], and 0.3% fatty-acid-free bovine serum albumin for 40 minutes at room temperature (RT). Test compounds, prepared in DMSO, were then added to each well and incubated for 20 minutes at RT. To induce calcium release, a concentration of […] in HBSS supplemented with 20 mM HEPES, and 0.3% fatty-acid-free bovine serum albumin was introduced. Intracellular calcium mobilization was subsequently quantified by monitoring the fluorescence intensity using the Spark® multimode microplate reader (TECAN).
(Calcium flux is commonly read through the fluorescence of an indicator in the cells.)

The test system of experiment [2] is A2058 cells. In words: Chemotaxis Assay (LPA-induced migration of A2058 cells). The class given is cell-based. As to conditions: Homo sapiens, 4 to 8 hours, crystal violet 590 nm. How it is done: For monitoring the migration of cells, Neuroprobe ChemoTx® System plates ([…], 5.7 mm diameter sites; Gaithersburg, MD, USA) were utilized. To induce cell migrations, a concentration of […] or vehicle in DMEM were loaded to the bottom chamber. A total of 15,000 A2058 cells, which were starved for 24 hr following treated with test compounds or vehicle, were then applied to the upper membrane coated with 0.001% fibronectin. The plate was incubated for 4 to 8 hours to allow cell migration. Following incubation, the plate was dissembled, and the migrated cells were visualized by crystal violet staining. The stained area with crystal violet was quantified by measuring the absorbance at 590 nm and the relative percentage of the control was calculated.

T1 sequence (Q92633 whole entry): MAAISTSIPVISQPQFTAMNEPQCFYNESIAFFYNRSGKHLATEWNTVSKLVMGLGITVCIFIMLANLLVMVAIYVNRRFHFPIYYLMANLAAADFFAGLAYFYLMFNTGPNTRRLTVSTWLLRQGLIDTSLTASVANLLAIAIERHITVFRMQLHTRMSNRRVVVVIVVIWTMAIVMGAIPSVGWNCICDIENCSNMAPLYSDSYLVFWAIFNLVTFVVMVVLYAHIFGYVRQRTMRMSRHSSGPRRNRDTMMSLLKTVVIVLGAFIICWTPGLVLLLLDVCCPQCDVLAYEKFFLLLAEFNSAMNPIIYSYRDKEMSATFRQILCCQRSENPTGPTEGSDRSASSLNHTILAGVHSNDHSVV

Usually IC50 stands for the concentration that inhibits the measured activity by half. As to `COc1cc(C2(C(=O)O)CC2)ccc1N1CC2(CC(c3onc(C)c3NC(=O)O[C@H](C)c3ccccc3)C2)C1` [Compound 46, 1-(3-methoxy-4-{6-[3-methyl-4-({[(1R)-1-phenylethoxy]carbonyl}amino)-1,2-oxazol-5-yl]-2-azaspiro[3.3]heptan-2-yl}phenyl)cyclopropane-1-carboxylic acid], the IC50 in experiment [1] is below 10 nM; in experiment [2], 500 to 5000 nM.

Take `Cc1ccccc1[C@@H](C)OC(=O)Nc1c(C)nsc1C1CCN(c2ccc(C3(C(=O)O)CC3)cc2)CC1` [Compound 36]: the values for the IC50 in experiment [1] and in experiment [2] were below 10 nM and below 100 nM, respectively.

As for `Cc1nnn(C2CCN(c3ccc(C4(C(=O)O)CC4)cc3)CC2)c1NC(=O)O[C@H](C)c1ccccc1` [Compound 53], the IC50 in experiment [1] is below 10 nM; in experiment [2], 500 to 5000 nM.

In the case of `COc1cc(C2(CNS(=O)(=O)CCC(=O)O)CC2)ccc1N1CCC(c2nnn(C)c2NC(=O)O[C@H](C)c2ccccc2)CC1` [Compound 3], the IC50 in experiment [1] is below 10 nM; in experiment [2], at least 5000 nM.

Turning to `C[C@@H](OC(=O)Nc1c(C2CCN(c3ccc(C4(C(=O)NS(=O)(=O)C(C)(C)C(=O)O)CC4)cc3)CC2)nnn1C)c1ccccc1` [Compound 56], the IC50 was below 10 nM in experiment [1] and 100 to 500 nM in experiment [2].

For `C[C@@H](OC(=O)Nc1c(C2CCN(c3ccc(C4(C(=O)NS(=O)(=O)CC5(C(=O)O)CC5)CC4)cc3)CC2)nnn1C)c1ccccc1Cl` [Compound 41], the IC50 was below 10 nM in experiment [1] and 100 to 500 nM in experiment [2].

On to `COCc1ccccc1[C@H](C)OC(=O)Nc1c(C2CCN(c3ccc(C4(C(=O)O)CC4)cc3)CC2)nnn1C` [Compound 24, (S)-1-(4-(4-(5-(((1-(2-(methoxymethyl)phenyl)ethoxy)carbonyl)amino)-1-methyl-1H-1,2,3-triazol-4-yl)piperidin-1-yl)phenyl)cyclopropane-1-carboxylic acid], for which the IC50 is below 10 nM in experiment [1] and 100 to 500 nM in experiment [2].

Take `COc1cc(C2(C(=O)NS(=O)(=O)CCC(=O)O)CC2)ccc1N1CCC(c2onc(C)c2NC(=O)O[C@H](C)c2ccccc2)CC1` [Compound 1, 3-[[1-[3-methoxy-4-[4-[3-methyl-4-[[(1R)-1-phenylethoxy]carbonylamino]isoxazol-5-yl]-1-piperidyl]phenyl]cyclopropanecarbonyl]sulfamoyl]propanoic acid]: the figures for the IC50 in experiment [1] and in experiment [2] were below 10 nM and below 100 nM, respectively.

For `Cc1noc(C2CCN(c3ccc(C4(S(=O)(=O)O)CC4)cc3)CC2)c1NC(=O)O[C@H](C)c1ccccc1` [Compound 89, 1-[4-[4-[3-methyl-4-[[(1R)-1-phenylethoxy]carbonylamino]isoxazol-5-yl]-1-piperidyl]phenyl]cyclopropanesulfonic acid], the IC50 in experiment [1] is below 10 nM; in experiment [2], 100 to 500 nM.

With `Cc1noc(C2CCN(c3ccc(C4(C(=O)NS(=O)(=O)C(F)(F)C(N)=O)CC4)cc3)CC2)c1NC(=O)O[C@H](C)c1ccccc1` [Compound 66], the IC50 was below 10 nM in experiment [1] and below 100 nM in experiment [2].

Take `Cc1ccccc1[C@@H](C)OC(=O)Nc1c(C2CCN(c3ccc(C4(C(=O)O)CC4)cc3)CC2)cnn1C` [Compound 34]: the IC50 was 10 to 200 nM in experiment [1] and below 100 nM in experiment [2].

With `Cc1noc(C2CCN(c3ccc(C4(C(=O)O)CC4)cc3)CC2)c1NC(=O)OCC1CC1` [Compound 5], the values for the IC50 in experiment [1] and in experiment [2] were 10 to 200 nM and 500 to 5000 nM, respectively.

`COc1ccccc1[C@@H](C)OC(=O)N(C)c1c(C)nsc1C1CCN(c2ccc(C3(C(=O)O)CC3)cc2)CC1` [Compound 44]: the IC50 was in the range of 10 to 200 nM in experiment [1] and 100 to 500 nM in experiment [2].

With `Cc1noc(C2CCN(c3ccc(C4(C(=O)NS(=O)(=O)CC5(C(=O)O)CC5)CC4)cc3)CC2)c1NC(=O)O[C@H](C)c1ccccc1` [Compound 82, 1-[({[1-(4-{4-[3-methyl-4-({[(1R)-1-phenylethoxy]carbonyl}amino)-1,2-oxazol-5-yl]piperidin-1-yl}phenyl)cyclopropyl]formamido}sulfonyl)methyl]cyclopropane-1-carboxylic acid], the results for the IC50 in experiment [1] and in experiment [2] were below 10 nM and below 100 nM, respectively.

For the compound `Cc1nsc(C2CCN(c3ccc(C4(C(=O)O)CC4)cc3)CC2)c1NC(=O)O[C@H](C)c1ccccc1F` [Compound 43], the IC50 in experiment [1] fell in the range of 10 to 200 nM; in experiment [2], 100 to 500 nM.

Turning to `Cc1noc(C2CCN(c3ccc(C4(C(=O)NS(=O)(=O)C5(CO)CC5)CC4)cc3)CC2)c1NC(=O)O[C@H](C)c1ccccc1` [Compound 77], the IC50 was below 10 nM in experiment [1] and below 100 nM in experiment [2].

`Cc1noc(C2CC3(C2)CN(c2ccc(C4(C(=O)NS(=O)(=O)CC(=O)O)CC4)cc2)C3)c1NC(=O)O[C@H](C)c1ccccc1` [Compound 48]: the IC50 in experiment [1] was 10 to 200 nM; in experiment [2], below 100 nM.

In the case of `C[C@@H](OC(=O)Nc1c(C2CCN(c3ccc(C4(C(=O)O)CC4)cc3)CC2)nnn1C)C1CCCCC1` [Compound 26, (R)-1-(4-(4-(5-(((1-cyclohexylethoxy)carbonyl)amino)-1-methyl-1H-1,2,3-triazol-4-yl)piperidin-1-yl)phenyl)cyclopropane-1-carboxylic acid], the IC50 was below 10 nM in experiment [1] and 500 to 5000 nM in experiment [2].

For the compound `C[C@@H](OC(=O)Nc1cccnc1C1CCN(c2ccc(C3(C(=O)O)CC3)cc2)CC1)c1ccccc1` [Compound 28], the IC50 fell in the range of 10 to 200 nM in experiment [1] and 500 to 5000 nM in experiment [2].

For the compound `Cc1noc(C2CCN(c3ccc(C4(C(=O)O)CC4)cc3)CC2)c1NC(=O)OC(C)C1CCCCC1` (stereo not drawn) [Compound 96], the IC50 was 10 to 200 nM in experiment [1] and 500 to 5000 nM in experiment [2].

As to `C=CCS(=O)(=O)NC(=O)C1(c2ccc(N3CCC(c4onc(C)c4NC(=O)O[C@H](C)c4ccccc4)CC3)cc2)CC1` [Compound 2, (1R)-1-phenylethyl N-{3-methyl-5-[1-(4-{1-[(prop-2-ene-1-sulfonyl)carbamoyl]cyclopropyl}phenyl)piperidin-4-yl]-1,2-oxazol-4-yl}carbamate], the results for the IC50 in experiment [1] and in experiment [2] were below 10 nM and below 100 nM, respectively.

In the case of `Cc1noc(C2CCN(c3ccc(C4(C(=O)O)CC4)cc3)CC2)c1N(C)C(=O)O[C@H](C)c1ccccc1` [Compound 45], the IC50 in experiment [1] was 10 to 200 nM; in experiment [2], 100 to 500 nM.

Consider `C[C@@H](OC(=O)Nc1c(C2CCN(c3ccc(C4(C(=O)NS(=O)(=O)CC(C)(C)C(=O)O)CC4)cc3)CC2)nnn1C)c1ccccc1Cl` [Compound 40], for which the IC50 in experiment [1] fell in the range of 10 to 200 nM; in experiment [2], 100 to 500 nM.

For the compound `Cc1nnn(C2CCN(c3ccc(C4(C(=O)O)CC4)cc3)CC2)c1NC(=O)O[C@H](C)c1ccccc1Cl` [Compound 51], the IC50 in experiment [1] was below 10 nM; in experiment [2], 500 to 5000 nM.

As to `Cc1nnn(C2CCN(c3ccc(C4(C(=O)NS(=O)(=O)C(F)(F)F)CC4)cc3)CC2)c1NC(=O)O[C@H](C)c1ccccc1` [Compound 15], the IC50 in experiment [1] fell in the range of 200 to 3000 nM; in experiment [2], 500 to 5000 nM.

Take `Cc1cc(NC(=O)O[C@H](C)c2ccccc2)c(C2CCN(c3ccc(C4(C(=O)O)CC4)cc3)CC2)s1` [Compound 91]: the IC50 was at least 3000 nM in experiment [1] and 100 to 500 nM in experiment [2].

With `Cc1noc(C2CCN(c3ccc(C4(C(=O)NS(=O)(=O)C5(C(=O)O)CC5)CC4)cc3)CC2)c1NC(=O)O[C@H](C)c1ccccc1` [Compound 75], the IC50 in experiment [1] is below 10 nM; in experiment [2], below 100 nM.
